According to PMC11851430, “Workflow for E3 Ligase Ligand Validation for PROTAC Development” (ACS Chemical Biology, 2025):

What was measured:
[1] = biological target: T1, kinase protein levels in MCF-7 cells (Homo sapiens, UniProt Q9BTL3); experiment: TMT-labeled quantitative proteomics; assay type: cell-based; conditions: protein FAM103A1; MCF7; 1 µM; set5
T1 construct: endogenous in cells; host or cells: MCF-7
Method: (§1) 50 µl of SDS Lysis Buffer (2% SDS, 50 mM TRIS pH 8.5, 10 mM TCEP, 40 mM CAA) was added to each sample. Cells were transferred into low binding reaction tubes (Eppendorf:
(§2) Methanol/Chloroform Precipitation. 200 µl of methanol and 50 µl of chloroform were added to each sample reaction tube and mixed via vortex. 150 µl of milliQ-H2O were added and samples were vortexed further. Samples were centrifuged for 5 minutes at 15000 g and the aqueous layer above the interphase was removed. 150 µl of methanol was added, samples were vortexed and centrifuged for 10 minutes at 15000 g to precipitate the pellet. The aforementioned wash procedure was repeated twice before transferring the pellet to a new low bind reaction tube in which it was allowed to dry for 5 minutes.
(§3) Dissolving the Protein Pellet and Protein Quantification. 50 µl of digestion buffer (8 M Urea, 50 mM TRIS pH 8) was added to each sample before vortexing and shaking at 750 rpm at room temperature for 10 minutes to solubilize the pellet. Protein quantification via PierceTM […]
(§4) Protein Digestion. Samples were diluted 1:2 with 50 mM TRIS pH 8.5 to reach a final concentration of 4 M Urea. Lys-C (Promega: VA1170) was added at a 1:100 enzyme/substrate ratio. Samples were agitated at 550 rpm and 37 °C for 3 h. Samples were further diluted with 50 mM TRIS pH 8.5 to a final concentration of 1 M Urea and Trypsin (Promega: V5280) was added at a 1:100 enzyme/substrate ratio. Samples were agitated overnight at 550 rpm and 37 °C. The digestion was stopped the following day via addition of TFA to a final concentration […]
(§5) Solid Phase Extraction via C18 Cartridges. Sep-Pak C18 Cartridges (Waters: WAT054955) were used for solid phase extraction of digested peptides. For preconditioning of C18 cartridges, 1 mL of methanol was added to each column followed by 1 mL of solution B (0.1% formic acid, 80% acetonitrile) and 1 mL of solution A (0.1% formic acid, ddH2O) twice. Samples […]
(§6) were loaded to their respective columns and once samples had passed, columns were washed twice with solution A to remove unwanted components from the loading step. Elution of samples was carried out via introduction of 40% and 60% acetonitrile steps. Samples were dried and snap frozen in liquid nitrogen.
(§7) TMT-Labeling. Desalted peptides were dried and resuspended in TMT-labeling buffer (200 mM EPPS pH 8.2, 20% acetonitrile). 10 μg of peptides per condition were subjected to TMT labeling with 1:2.5 peptide TMT ratio (w/w) for 1 h at room temperature. The labeling reaction was quenched by addition of hydroxylamine to a final concentration of 0.5% and incubation at room temperature for 15 minutes. Successful TMT labeling was verified by mixing equimolar ratios of peptides and subjecting the mix to single shot LC-MS/MS analysis. For high pH reversed phase fractionation on a Dionex analytical HPLC, 50 µg of pooled and purified TMT labelled samples were resuspended in 10 mM ammonium-bicarbonate (ABC), 5% acetonitrile, and separated on a 250 mm long C18 column (Aeris Peptide XB-C18, 4.6 mm ID, 2.6 µm particle size; Phenomenex) using a multistep gradient from 100% solvent A (5% acetonitrile, 10 mM ABC in water) to 60% solvent B (90% acetonitrile, 10 mM ABC in water) over 70 minutes. Eluting peptides were collected every 45 seconds into a total of 96 fractions, which were cross-concatenated into 24 fractions and dried in a vacuum concentrator and resuspended in 3% acetonitrile with 0.1% TFA for LC-MS analysis.
(§8) Mass spectrometry data acquisition. Tryptic peptides were analyzed on an Orbitrap Lumos coupled to an easy nLC 1200 (ThermoFisher Scientific) using a 35 cm long, 75 µm ID fused-silica column packed in house with 1.9 µm C18 particles (Reprosil pur, Dr. Maisch), and kept at 50 °C using an integrated column oven (Sonation). HPLC solvents consisted of 0.1% formic acid in water (buffer A) and 0.1% formic acid and 80% acetonitrile in water (buffer B). Assuming

[2] = biological target: T2, kinase protein levels in MCF-7 cells (Homo sapiens, UniProt A0A096LP01); experiment: TMT-labeled quantitative proteomics; assay type: cell-based; conditions: MCF7, 1 µM
T2 construct: endogenous in cells; host or cells: MCF-7
Method: as §1, §2, §3, §4, §5, §6, §7, §8

[3] = system: kinase protein levels in MCF-7 cells; experiment: TMT-labeled quantitative proteomics; assay type: cell-based, human; conditions: for kinase degradation: MCF-7 cells, 1 μM, 6 h; for log2FC (compound/DMSO): MCF7, 1 µM, set5
Method: as §1, §2, §3, §4, §5, §6, §7, §8

[4] = system: Jurkat cells; experiment: CellTiterGlo cell viability assay; assay type: cell-based, human; conditions: 24 h
Method: The effects of the compounds on cell viability was determined using the CellTiter-Glo® 2.0 Cell Viability Assay (Promega: G9241) following manufacturer’s protocol. Ten µL of Jurkat cells at […]
After equilibration, PROTACs were titrated at various concentrations using an Echo acoustic […]
volume of CellTiter-Glo® 2.0 reagent (10 µL) was added to each well and cells were incubated for 10 minutes at room temperature. Filtered luminescence was measured on a PHERAstar plate reader (BMG Labtech) and data was evaluated using GraphPad Prism 9 software employing a normalized curve it with the following equation: Y=Bottom + (Top-Bottom)/(1+10(LogEC50-X) *HillSlope).
Sample preparation. Jurkat cells (ATCC © HTB-22) were cultured in RPMI (Thermo: […]

[5] = biological target: full-length AAK1 (Homo sapiens, UniProt Q2M2I8); experiment: NanoBRET target engagement assay, intact and permeabilized cells
Method: (§9) Compounds were pipetted at various concentrations using an Echo acoustic dispenser (Labcyte), immediately followed by Tracer K10 (Promega, Tracer DB ID: T000008) for AAK1 and Aurora A and VHL Tracer (Promega, Tracer DB ID: T000019) for VHL, at an optimum KD concentration chosen from TracerDB ( tracerdb.org), respectively.
(§10) To measure the BRET signal, the NanoBRET® NanoGlo Substrate (Promega:
(§11) N1573) was added as per the manufacturer’s protocol, and filtered luminescence was measured on a PHERAstar plate reader (BMG Labtech) equipped with a luminescence filter pair (450 nm BP filter (donor) and 610 nm LP filter (acceptor)). For NanoBRET® measurement in permeabilized cells, 25 nL of digitonin (0.05 μg/μL) was pipetted into each well using an
(§12) After incubation, the BRET signals were measured by a PHERAstar plate reader (BMG Labtech) following the same procedure as intact NanoBRET® measurement. Competitive displacement data were then normalized to controls and were plotted using GraphPad Prism 9 software employing a normalized 3-parameter curve fit with the following equation:

[6] = biological target: VHL (Homo sapiens, UniProt P40337); experiment: cell-based; design: full-length, NanoLuc fusion (Promega N2741); species or system HEK293T; NanoBRET VHL tracer displacement in permeabilized cells, NanoLuc-VHL fusion; conditions: permeabilized cells; read-out: VHL permeabilized (IC50±sd)/µM
[7] = biological target: T3, AURKA (Homo sapiens, UniProt O14965); experiment: NanoBRET target engagement assay, intact and permeabilized cells; conditions: mean of duplicates, ^a values estimated by extrapolation
T3 sequence (O14965 1-403): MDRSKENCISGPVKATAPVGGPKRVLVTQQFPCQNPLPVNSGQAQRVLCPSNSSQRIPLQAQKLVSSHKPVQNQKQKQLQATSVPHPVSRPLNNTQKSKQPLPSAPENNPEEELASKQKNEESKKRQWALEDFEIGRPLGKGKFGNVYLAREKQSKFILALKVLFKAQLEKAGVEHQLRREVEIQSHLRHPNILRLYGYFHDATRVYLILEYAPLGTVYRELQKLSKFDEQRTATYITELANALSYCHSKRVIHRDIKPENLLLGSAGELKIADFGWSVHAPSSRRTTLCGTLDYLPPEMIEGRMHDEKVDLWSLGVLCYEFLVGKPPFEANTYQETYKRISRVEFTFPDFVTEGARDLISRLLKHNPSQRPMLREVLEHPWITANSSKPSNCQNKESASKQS
Method: as §9, §10, §11, §12

[8] = biological target: T4, kinase protein levels in MCF-7 cells (Homo sapiens, UniProt A0A0B4J2F0); experiment: TMT-labeled quantitative proteomics; assay type: cell-based; conditions: protein PIGBOS1; MCF7; 1 µM; set2
T4 construct: endogenous in cells; host or cells: MCF-7
T4 sequence (A0A0B4J2F0 1-54): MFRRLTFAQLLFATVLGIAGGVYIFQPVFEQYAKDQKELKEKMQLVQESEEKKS
Method: as §1, §2, §3, §4, §5, §6, §7, §8

[9] = biological target: T5, kinase protein levels in MCF-7 cells (Homo sapiens, UniProt P0DPI2); experiment: TMT-labeled quantitative proteomics; assay type: cell-based; conditions: protein GATD3; MCF7; 1 µM; set2
T5 construct: endogenous in cells; host or cells: MCF-7
T5 sequence (P0DPI2 42-268): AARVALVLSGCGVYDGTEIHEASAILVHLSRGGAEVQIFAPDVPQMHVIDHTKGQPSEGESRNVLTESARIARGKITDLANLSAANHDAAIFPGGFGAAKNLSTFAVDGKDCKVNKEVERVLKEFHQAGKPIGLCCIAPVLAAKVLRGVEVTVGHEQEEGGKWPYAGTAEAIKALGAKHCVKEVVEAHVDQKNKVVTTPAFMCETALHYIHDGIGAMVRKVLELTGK
Method: as §1, §2, §3, §4, §5, §6, §7, §8

[10] = biological target: T6, kinase protein levels in MCF-7 cells (Homo sapiens, UniProt A0A0U1RRE5); experiment: TMT-labeled quantitative proteomics; assay type: cell-based; conditions: protein NBDY; MCF7; 1 µM; set2
T6 construct: endogenous in cells; host or cells: MCF-7
T6 sequence (A0A0U1RRE5 1-68): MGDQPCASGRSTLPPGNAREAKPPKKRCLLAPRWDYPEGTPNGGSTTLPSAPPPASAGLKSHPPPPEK
Method: as §1, §2, §3, §4, §5, §6, §7, §8

[11] = biological target: T7, kinase protein levels in MCF-7 cells (Homo sapiens, UniProt A0A024RBG1); experiment: TMT-labeled quantitative proteomics; assay type: cell-based; conditions: protein NUDT4B; MCF7; 1 µM; set2
T7 construct: endogenous in cells; host or cells: MCF-7
Method: as §1, §2, §3, §4, §5, §6, §7, §8

[12] = protein NBPF19;NBPF15;NBPF8;NBPF10;NBPF3;NBPF11;NBPF26;NBPF14;NBPF1;NBPF12
[13] = AAK1 intact (IC50±sd)/μM, NanoBRET, intact cells, mean of duplicates, ^a values estimated by extrapolation
[14] = AAK1 permeabilized (IC50±sd)/μM, NanoBRET, permeabilized cells, mean of duplicates
[15] = AURKA intact (IC50±sd)/μM, intact cells
[16] = AURKA permeabilized (IC50±sd)/μM, permeabilized cells

Sequence of full-length AAK1 (Q2M2I8 whole entry, the tested form may be a part): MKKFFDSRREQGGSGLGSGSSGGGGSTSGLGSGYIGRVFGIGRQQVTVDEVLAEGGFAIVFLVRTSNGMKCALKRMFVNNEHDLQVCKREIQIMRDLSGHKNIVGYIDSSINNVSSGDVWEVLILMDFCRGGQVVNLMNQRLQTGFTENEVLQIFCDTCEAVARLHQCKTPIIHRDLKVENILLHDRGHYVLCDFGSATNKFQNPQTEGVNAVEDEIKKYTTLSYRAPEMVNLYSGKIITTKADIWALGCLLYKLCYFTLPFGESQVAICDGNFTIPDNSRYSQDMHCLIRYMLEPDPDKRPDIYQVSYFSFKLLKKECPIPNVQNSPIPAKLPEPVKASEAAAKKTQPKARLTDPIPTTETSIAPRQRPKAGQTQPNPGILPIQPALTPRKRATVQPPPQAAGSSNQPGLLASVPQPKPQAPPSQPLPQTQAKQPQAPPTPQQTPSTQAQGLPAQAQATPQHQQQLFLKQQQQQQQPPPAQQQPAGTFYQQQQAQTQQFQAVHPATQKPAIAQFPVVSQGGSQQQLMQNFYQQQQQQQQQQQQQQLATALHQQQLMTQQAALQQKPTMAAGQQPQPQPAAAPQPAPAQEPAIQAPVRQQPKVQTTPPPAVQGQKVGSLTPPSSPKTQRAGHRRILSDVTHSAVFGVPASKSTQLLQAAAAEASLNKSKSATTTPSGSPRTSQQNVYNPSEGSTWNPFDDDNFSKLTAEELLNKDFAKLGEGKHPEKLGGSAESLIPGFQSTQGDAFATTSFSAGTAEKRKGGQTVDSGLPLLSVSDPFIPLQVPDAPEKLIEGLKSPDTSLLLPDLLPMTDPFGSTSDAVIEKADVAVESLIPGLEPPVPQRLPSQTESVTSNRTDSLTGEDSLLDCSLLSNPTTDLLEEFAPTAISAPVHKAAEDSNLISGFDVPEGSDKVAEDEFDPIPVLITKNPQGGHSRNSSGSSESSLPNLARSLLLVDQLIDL
T1 sequence (Q9BTL3 whole entry): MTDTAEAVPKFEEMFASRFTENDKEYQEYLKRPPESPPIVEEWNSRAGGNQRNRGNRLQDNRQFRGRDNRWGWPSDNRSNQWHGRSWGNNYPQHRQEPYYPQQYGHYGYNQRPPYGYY
T2 sequence (A0A096LP01 whole entry): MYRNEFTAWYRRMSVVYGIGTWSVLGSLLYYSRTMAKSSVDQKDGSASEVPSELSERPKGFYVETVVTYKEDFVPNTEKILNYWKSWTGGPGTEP
Sequence of VHL (P40337 whole entry, the tested form may be a part): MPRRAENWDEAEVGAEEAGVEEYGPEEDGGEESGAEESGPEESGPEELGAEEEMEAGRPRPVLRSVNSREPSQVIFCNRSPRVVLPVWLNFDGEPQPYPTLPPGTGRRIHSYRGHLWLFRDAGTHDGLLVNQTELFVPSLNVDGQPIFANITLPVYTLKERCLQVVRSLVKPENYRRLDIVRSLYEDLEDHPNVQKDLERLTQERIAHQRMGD
T7 sequence (A0A024RBG1 whole entry): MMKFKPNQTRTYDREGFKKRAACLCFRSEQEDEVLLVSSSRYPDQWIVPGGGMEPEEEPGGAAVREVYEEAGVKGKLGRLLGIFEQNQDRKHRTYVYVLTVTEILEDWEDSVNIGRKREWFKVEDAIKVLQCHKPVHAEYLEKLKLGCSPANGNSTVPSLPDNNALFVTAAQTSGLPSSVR

Compound | P.Value (compound/DMSO) [1] | log2FC (compound/DMSO) [1] | P.Value (compound/DMSO) ([2]; protein LINC00493, set5) | log2FC (compound/DMSO) ([2]; protein LINC00493, set5) | kinase degradation [3] | log2FC (compound/DMSO) ([3]; protein ARHGEF5;ARHGEF35) | log2FC (compound/DMSO) [3, 12] | IC50 [5, 13] | IC50 [5, 14] | IC50 [6] | IC50 [7, 15] | IC50 [7, 16] | also measured
Cc1ncsc1-c1ccc(CNC(=O)[C@@H]2C[C@@H](O)CN2C(=O)[C@@H](NC(=O)CCOCCOCCN2CCN(c3ccc(Nc4ncc(Cl)c(Nc5ccccc5C(N)=O)n4)cc3)CC2)C(C)(C)C)cc1 [6-a] | 0.2865 | 0.1658 | 0.02321 | -0.4581 | significant degradation of several kinases | 0.1364 | -0.2637 | 0.088 ± 0.003 µM | 0.028 ± 0.001 µM | 1.123 ± 0.005 µM | 0.203 ± 0.01 µM | 0.105 ± 0.007 µM | effect on cell viability (cytotoxicity) [4]: particularly pronounced effects on cell viability; IC50 ([4]; Homo sapiens, mean of triplicates, ^b/^c values estimated, read-out: IC50±sd/μM (cell viability)): ~0.8 µM
Cc1ncsc1-c1ccc(CNC(=O)[C@@H]2C[C@@H](O)CN2C(=O)[C@@H](NC(=O)CCCCCCN2CCN(c3cc(Nc4cc(C5CC5)[nH]n4)nc(Nc4ccc(CC#N)cc4)n3)CC2)C(C)(C)C)cc1 [4-c] | 0.9983 | -0.0003068 | 0.06841 | 0.3546 | significant degradation of several kinases | 0.09465 | -0.3485 | 0.443 ± 0.043 µM | 0.178 ± 0.029 µM | 4.32 ± 1.46 µM | ~5.98 µM | 2.73 ± 0.78 µM | 
Cc1ncsc1-c1ccc(CNC(=O)[C@@H]2C[C@@H](O)CN2C(=O)[C@@H](NC(=O)CCOCCOCCOCCOCCOCCOCCN2CCN(c3cc(Nc4cc(C5CC5)[nH]n4)nc(Nc4ccc(CC#N)cc4)n3)CC2)C(C)(C)C)cc1 [4-b] | 0.9701 | 0.005351 | 0.7132 | 0.05687 | did not result in significant degradation of any kinase | 0.1142 | 0.1563 | ~1.84 µM | 0.081 µM | 0.97 ± 0.013 µM | ~18.9 µM | 4.84 ± 2.01 µM | AAK1 intact (IC50±sd)/μM ([5]; NanoBRET, intact cells, mean of duplicates, ^a values estimated by extrapolation): single-digit micromolar; cell permeability / cell penetration ([5]; as shown by the NanoBRET data (intact vs permeabilized cells)): Inefficient cell penetration
CC(=O)N[C@H](C(=O)N1C[C@H](O)C[C@H]1C(=O)NCc1ccc(-c2scnc2C)cc1OCCOCCOCCOCCOCCC(=O)N1CCN(c2cc(Nc3cc(C4CC4)[nH]n3)nc(Nc3ccc(CC#N)cc3)n2)CC1)C(C)(C)C [4-d] |  |  |  |  | did not result in significant degradation of any kinase |  |  | 0.126 ± 0.033 µM | 0.038 ± 0.006 µM | 0.366 ± 0.064 µM | 4.62 ± 1.12 µM | 1.52 ± 0.061 µM | P.Value (compound/DMSO) [8]: 0.6355; log2FC (compound/DMSO) [8]: 0.04834; P.Value (compound/DMSO) [9]: 0.2539; log2FC (compound/DMSO) [9]: -0.1491; P.Value (compound/DMSO) ([2]; protein SMIM26, set2): 0.9318; log2FC (compound/DMSO) ([2]; protein SMIM26, set2): 0.01005; P.Value (compound/DMSO) [10]: 0.03785; log2FC (compound/DMSO) [10]: -0.3975; P.Value (compound/DMSO) [11]: 0.1315; log2FC (compound/DMSO) [11]: -0.2481
